Data published in patent US9662351B2, “Plasma and brain pharmacokinetics of previously unexplored lithium salts” (University of South Florida, priority 2014, dated 2017).

Tests used:
[1] = rat
Method: Male Sprague Dawley rats weighing 200-250 grams were dosed via oral gavage with 4 meq. […] Blood and brain were collected and lithium was measured using atomic absorption spectroscopy (AAS).
Male Sprague Dawley rats weighing 200-250 grams were purchased from Harlan (Harlan Sprague Dawley Inc., Indianapolis, Ind.). […] The rats were allowed to acclimate for a period of one week before any experiments are carried out. […] They were allowed free access to food and water throughout the experiment. […] Animals in each treatment group were euthanized at 2, 24, 48, and 72 hours (n=3 per time point per lithium salt) and blood was collected by cardiac puncture and carefully perfused with a pressure controlled pump to maintain microvasculature integrity before removing brain tissue. Blood was centrifuged at 1600×g at room temperature for 10 minutes and plasma was separated. A 500 mL aliquot was diluted 10 fold in a 5% TCA and 10% isopropyl alcohol (IPA) solution, vortexed and allowed to sit for 10 minutes in order to precipitate proteins. These aliquots were centrifuged at 3000×g for 30 minutes and the supernatant was transferred to clean tubes prior to measuring lithium content using atomic absorption spectroscopy (AAS). Brains were rinsed with PBS, weighed, and an equal volume of concentrated HNO3 was added. The brains were heated in this nitric acid solution for 1 hour, allowed to cool to room temperature, then centrifuged at 3000×g for 1 hour. The supernatant was removed and diluted 10 fold in 10% IPA prior to measuring lithium content using AAS (Shimadzu AA-6200). Peak height measurements were carried out referring to values obtained for standards of known concentrations. […] Two tailed t-tests were used to assess the statistical significance at each time point for the pharmacokinetic curves. The criterion for rejection of the null hypothesis was P<0.05.

[2] = rat, same protocol; previously reported [7]; peaks rapidly; cited from earlier work

SMILES	AUC(0-72) ([1]; brain lithium, 0-72 h, oral gavage 4 meq. kg^−1 elemental lithium, mean±SEM) [µg/g]	brain lithium exposure compared with other lithium salts (e.g. lithium lactate) ([1]; brain, oral)	plasma lithium exposure compared with other lithium salts (e.g. lithium lactate) ([1]; plasma, oral)	time to elimination of lithium [2] [h]
O=C([O-])c1ccccc1O.[Li+] [Lithium Salicylate, Lithium salicylate]	153.1 ± 7.66	better brain exposure	comparatively lower plasma lithium exposure	
O=C([O-])[O-].[Li+].[Li+] [lithium carbonate]				≤ 48
